Assay results published in ChEMBL document CHEMBL1909046, “DrugMatrix in vitro pharmacology data”.

Key:
Cytochrome P450 2D6 = Cytochrome P450 2D6 (Homo sapiens, UniProt P10635)
Cytochrome P450 1A2 [1] = biological target: T1, Cytochrome P450 1A2 (Homo sapiens, UniProt P05177); conditions: bti-tn-5b1-4
T1 sequence (P05177 whole entry): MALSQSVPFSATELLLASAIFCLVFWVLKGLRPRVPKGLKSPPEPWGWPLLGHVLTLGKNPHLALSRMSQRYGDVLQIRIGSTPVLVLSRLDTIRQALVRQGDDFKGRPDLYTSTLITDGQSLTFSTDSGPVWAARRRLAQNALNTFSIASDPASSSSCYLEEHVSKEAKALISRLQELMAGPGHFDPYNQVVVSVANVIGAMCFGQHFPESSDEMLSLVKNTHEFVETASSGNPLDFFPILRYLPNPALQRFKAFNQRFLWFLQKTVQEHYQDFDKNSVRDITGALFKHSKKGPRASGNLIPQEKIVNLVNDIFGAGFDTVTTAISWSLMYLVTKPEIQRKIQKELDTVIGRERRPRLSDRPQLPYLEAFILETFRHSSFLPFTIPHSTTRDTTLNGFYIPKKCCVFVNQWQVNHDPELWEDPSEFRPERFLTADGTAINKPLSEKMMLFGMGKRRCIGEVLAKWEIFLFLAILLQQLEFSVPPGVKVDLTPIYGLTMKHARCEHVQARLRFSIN

Cytochrome P450 2C9 = Cytochrome P450 2C9 (Homo sapiens, UniProt P11712); conditions: bti-tn-5b1-4
Cytochrome P450 2C9, sequence (P11712 whole entry): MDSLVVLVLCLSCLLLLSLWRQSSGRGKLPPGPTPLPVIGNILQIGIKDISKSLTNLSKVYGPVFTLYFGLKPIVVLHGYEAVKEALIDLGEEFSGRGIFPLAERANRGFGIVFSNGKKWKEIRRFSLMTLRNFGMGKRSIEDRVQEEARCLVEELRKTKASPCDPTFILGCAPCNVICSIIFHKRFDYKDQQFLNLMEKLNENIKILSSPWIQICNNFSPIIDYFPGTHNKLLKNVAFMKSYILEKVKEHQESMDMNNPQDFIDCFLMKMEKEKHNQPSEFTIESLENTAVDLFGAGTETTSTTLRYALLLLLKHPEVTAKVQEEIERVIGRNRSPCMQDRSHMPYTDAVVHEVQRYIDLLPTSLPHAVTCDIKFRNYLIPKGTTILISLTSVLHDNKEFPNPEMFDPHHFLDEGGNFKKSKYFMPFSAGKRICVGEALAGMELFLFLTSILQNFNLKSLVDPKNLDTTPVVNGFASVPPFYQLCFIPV

Androgen receptor = biological target: T2, Androgen receptor (Rattus norvegicus, UniProt P15207)
T2 sequence (P15207 whole entry): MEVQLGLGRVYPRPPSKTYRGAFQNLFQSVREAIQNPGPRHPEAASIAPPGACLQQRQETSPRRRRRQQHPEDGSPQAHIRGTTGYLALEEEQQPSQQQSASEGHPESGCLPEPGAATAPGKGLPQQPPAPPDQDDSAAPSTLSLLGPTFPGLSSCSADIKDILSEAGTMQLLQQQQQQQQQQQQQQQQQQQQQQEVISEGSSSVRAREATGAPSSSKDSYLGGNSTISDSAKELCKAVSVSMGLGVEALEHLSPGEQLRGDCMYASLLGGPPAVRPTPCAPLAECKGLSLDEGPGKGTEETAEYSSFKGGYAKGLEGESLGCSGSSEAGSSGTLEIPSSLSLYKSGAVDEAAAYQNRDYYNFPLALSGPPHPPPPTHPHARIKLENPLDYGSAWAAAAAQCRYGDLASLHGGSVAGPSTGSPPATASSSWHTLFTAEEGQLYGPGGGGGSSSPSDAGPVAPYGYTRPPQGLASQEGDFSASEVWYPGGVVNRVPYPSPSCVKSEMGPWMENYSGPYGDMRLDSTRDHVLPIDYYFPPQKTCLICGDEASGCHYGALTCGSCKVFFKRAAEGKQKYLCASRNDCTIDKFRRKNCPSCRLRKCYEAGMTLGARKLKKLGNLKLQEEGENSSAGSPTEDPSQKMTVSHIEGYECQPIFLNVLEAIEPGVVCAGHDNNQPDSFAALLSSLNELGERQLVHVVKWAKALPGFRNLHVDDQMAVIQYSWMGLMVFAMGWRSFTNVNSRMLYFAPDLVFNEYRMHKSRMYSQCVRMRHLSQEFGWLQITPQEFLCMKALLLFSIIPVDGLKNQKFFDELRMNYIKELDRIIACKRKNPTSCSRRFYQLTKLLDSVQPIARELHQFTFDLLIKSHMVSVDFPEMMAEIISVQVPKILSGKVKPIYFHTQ

Cytochrome P450 2C19 = Cytochrome P450 2C19 (Homo sapiens, UniProt P33261)
Cytochrome P450 2C19, sequence (P33261 whole entry): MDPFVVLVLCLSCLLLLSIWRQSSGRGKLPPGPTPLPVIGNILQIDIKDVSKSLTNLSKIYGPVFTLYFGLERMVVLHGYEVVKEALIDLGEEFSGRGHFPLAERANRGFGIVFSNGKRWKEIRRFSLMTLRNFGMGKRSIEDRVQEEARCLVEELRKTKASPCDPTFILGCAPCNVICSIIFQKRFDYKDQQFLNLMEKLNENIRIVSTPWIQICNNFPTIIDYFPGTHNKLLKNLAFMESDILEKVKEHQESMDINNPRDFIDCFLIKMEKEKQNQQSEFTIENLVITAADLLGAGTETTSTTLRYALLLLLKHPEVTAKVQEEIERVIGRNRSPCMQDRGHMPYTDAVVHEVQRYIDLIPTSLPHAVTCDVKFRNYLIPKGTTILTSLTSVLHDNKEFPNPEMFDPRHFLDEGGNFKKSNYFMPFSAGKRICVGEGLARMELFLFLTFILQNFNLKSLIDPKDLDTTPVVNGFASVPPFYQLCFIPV

Glucocorticoid receptor = biological target: T3, Glucocorticoid receptor (Homo sapiens, UniProt P04150); test: biochemical
T3 sequence (P04150 whole entry): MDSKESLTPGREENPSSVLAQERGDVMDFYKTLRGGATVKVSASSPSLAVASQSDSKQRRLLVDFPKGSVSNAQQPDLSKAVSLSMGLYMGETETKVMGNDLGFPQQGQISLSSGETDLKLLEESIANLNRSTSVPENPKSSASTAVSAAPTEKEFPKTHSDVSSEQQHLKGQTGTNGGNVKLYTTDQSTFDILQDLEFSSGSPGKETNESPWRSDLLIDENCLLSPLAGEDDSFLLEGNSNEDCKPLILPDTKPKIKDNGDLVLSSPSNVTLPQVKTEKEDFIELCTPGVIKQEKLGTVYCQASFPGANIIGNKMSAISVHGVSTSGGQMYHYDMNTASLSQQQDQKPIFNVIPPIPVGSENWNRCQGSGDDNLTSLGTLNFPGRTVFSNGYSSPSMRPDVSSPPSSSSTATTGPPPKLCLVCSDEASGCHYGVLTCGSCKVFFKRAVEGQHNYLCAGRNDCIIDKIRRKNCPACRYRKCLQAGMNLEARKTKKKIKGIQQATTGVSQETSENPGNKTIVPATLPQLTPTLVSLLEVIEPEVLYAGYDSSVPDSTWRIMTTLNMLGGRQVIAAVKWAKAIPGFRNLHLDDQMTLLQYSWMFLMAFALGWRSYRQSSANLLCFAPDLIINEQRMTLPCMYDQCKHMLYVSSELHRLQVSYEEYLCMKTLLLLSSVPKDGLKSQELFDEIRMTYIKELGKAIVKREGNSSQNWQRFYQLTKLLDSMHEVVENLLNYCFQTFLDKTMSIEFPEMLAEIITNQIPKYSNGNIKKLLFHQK

Cytochrome P450 1A2 [2] = biological target: T1, Cytochrome P450 1A2
Also: in other assays of this panel Not Active means under 50% inhibition at 10 µM.

Cytochrome P450 2D6, sequence (P10635 whole entry): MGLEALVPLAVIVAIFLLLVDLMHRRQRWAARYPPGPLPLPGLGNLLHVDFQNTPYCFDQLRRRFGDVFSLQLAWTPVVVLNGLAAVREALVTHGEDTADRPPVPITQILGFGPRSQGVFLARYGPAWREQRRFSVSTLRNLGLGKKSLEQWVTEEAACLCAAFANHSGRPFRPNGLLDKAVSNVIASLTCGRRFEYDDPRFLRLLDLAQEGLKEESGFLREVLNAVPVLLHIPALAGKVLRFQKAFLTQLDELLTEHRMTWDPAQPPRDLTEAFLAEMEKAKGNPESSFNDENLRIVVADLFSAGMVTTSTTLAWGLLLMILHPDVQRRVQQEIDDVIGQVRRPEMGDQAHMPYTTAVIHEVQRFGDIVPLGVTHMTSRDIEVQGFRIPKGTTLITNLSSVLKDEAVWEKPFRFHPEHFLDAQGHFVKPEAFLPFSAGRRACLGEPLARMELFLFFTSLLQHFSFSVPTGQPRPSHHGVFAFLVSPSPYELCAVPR

Molecule | IC50 (Cytochrome P450 2D6) | IC50 (Cytochrome P450 1A2 [1]) | Ki (Cytochrome P450 1A2 [1]) | IC50 (Cytochrome P450 2C9) | Ki (Cytochrome P450 2C9) | IC50 (Androgen receptor) | IC50 (Cytochrome P450 2C19) | IC50 (Glucocorticoid receptor) | Ki (Glucocorticoid receptor) | IC50 (Cytochrome P450 1A2 [2]) | Ki (Androgen receptor)
CC(CCc1ccccc1)NCC(O)c1ccc(O)c(C(N)=O)c1 (stereo not given) [LABETALOL] | 0.8 µM | Not Active | Not Active | Not Active | Not Active |  |  |  |  |  | 
COS(C)(=O)=O [METHANESULFONIC ACID METHYL ESTER] |  | Not Active | Not Active | Not Active | Not Active |  |  |  |  |  | 
COC(=O)c1ccc(O)cc1 [METHYLPARABEN] |  | Not Active | Not Active | Not Active | Not Active |  |  |  |  |  | 
C[C@](N)(Cc1ccc(O)cc1)C(=O)O [METYROSINE] |  | Not Active | Not Active | Not Active | Not Active |  |  |  |  |  | 
CN1CCN2c3ccccc3Cc3ccccc3C2C1 (stereo not given) [MIANSERIN] |  |  |  | Not Active | Not Active | Not Active |  |  |  |  | 
Clc1ccc(C(c2ccccc2Cl)C(Cl)Cl)cc1 (stereo not given) [MITOTANE] |  | Not Active | Not Active | Not Active | Not Active |  |  |  |  |  | 
O=C1c2c(O)ccc(O)c2C(=O)c2c(NCCNCCO)ccc(NCCNCCO)c21 [MITOXANTRONE] |  |  |  |  |  | Not Active |  |  |  |  | 
CC(C)(O)c1ccccc1CC[C@@H](SCC1(CC(=O)O)CC1)c1cccc(/C=C/c2ccc3ccc(Cl)cc3n2)c1 [MONTELUKAST] |  | Not Active | Not Active | Not Active | Not Active | Not Active |  |  |  |  | 
COc1c(C)c2c(c(O)c1C/C=C(\C)CCC(=O)OCCN1CCOCC1)C(=O)OC2 [MYCOPHENOLATE MOFETIL] |  | Not Active | Not Active | Not Active | Not Active | Not Active |  |  |  |  | 
CC(=O)[C@H]1CC[C@H]2[C@@H]3CCC4=CC(=O)CC[C@]4(C)[C@H]3CC[C@]12C [PROGESTERONE] |  | Not Active | Not Active | Not Active | Not Active |  |  |  |  |  | 
O=[N+]([O-])c1cc([As](=O)(O)O)ccc1O [ROXARSONE] |  | Not Active | Not Active | Not Active | Not Active |  |  |  |  |  | 
CC[C@H]1OC(=O)[C@H](C)[C@@H](O[C@H]2C[C@@](C)(OC)[C@@H](O)[C@H](C)O2)[C@H](C)[C@@H](O[C@@H]2O[C@H](C)C[C@H](N(C)C)[C@H]2O)[C@](C)(O)C[C@@H](C)/C(=N\OCOCCOC)[C@H](C)[C@@H](O)[C@]1(C)O [ROXITHROMYCIN] |  | Not Active | Not Active | Not Active | Not Active |  |  |  |  |  | 
NC(=O)c1ccccc1O [SALICYLAMIDE] |  | Not Active | Not Active | Not Active | Not Active |  |  |  |  |  | 
Cc1ncc([N+](=O)[O-])n1CC(C)O (stereo not given) [SECNIDAZOLE] |  | Not Active | Not Active | Not Active | Not Active |  |  |  |  |  | 
CC(=O)S[C@@H]1CC2=CC(=O)CC[C@]2(C)[C@H]2CC[C@@]3(C)[C@@H](CC[C@@]34CCC(=O)O4)[C@H]12 [SPIRONOLACTONE] |  |  |  |  |  |  | 3 µM | 1.9 µM | 0.865 µM |  | 
CN(N=O)C(=O)N[C@@H](C=O)[C@@H](O)[C@H](O)[C@H](O)CO [STREPTOZOCIN] |  | Not Active | Not Active | Not Active | Not Active | Not Active |  |  |  |  | 
CC1CN(c2cc3c(cc2F)c(=O)c(C(=O)O)cn3-c2ccc(F)cc2F)CCN1 (stereo not given) [TEMAFLOXACIN] |  | Not Active | Not Active | Not Active | Not Active |  |  |  |  |  | 
CC(C)(C)NCC(O)c1cc(O)cc(O)c1 (stereo not given) [TERBUTALINE] |  | Not Active | Not Active | Not Active | Not Active |  |  |  |  |  | 
CN(C)[C@@H]1C(O)=C(C(N)=O)C(=O)[C@@]2(O)C(O)=C3C(=O)c4c(O)cccc4[C@@](C)(O)[C@H]3C[C@@H]12 [TETRACYCLINE] |  |  |  |  |  | Not Active |  |  |  |  | 
c1ccc2[nH]c(-c3cscn3)nc2c1 [THIABENDAZOLE] |  |  |  | Not Active | Not Active | Not Active |  |  |  | 0.8 µM | 
CSc1ccc2c(c1)N(CCC1CCCCN1C)c1ccccc1S2 (stereo not given) [THIORIDAZINE] |  |  |  | Not Active | Not Active |  | 6.38 µM |  |  | 9.33 µM | 
Cc1ccc(C(=O)C(C)CN2CCCCC2)cc1 (stereo not given) [TOLPERISONE] |  | Not Active | Not Active | Not Active | Not Active |  |  |  |  |  | 
COc1cccc(C2(O)CCCCC2CN(C)C)c1 (stereo not given) [TRAMADOL] |  | Not Active | Not Active | Not Active | Not Active | Not Active |  |  |  |  | 
NC(CO)(CO)CO [TROMETHAMINE] |  | Not Active | Not Active | Not Active | Not Active |  |  |  |  |  | 
CN1[C@@H]2CC[C@H]1C[C@@H](OC(=O)c1c[nH]c3ccccc13)C2 [TROPISETRON] |  | Not Active | Not Active | Not Active | Not Active |  |  |  |  |  | 
COc1cc(C(=O)NC2CCCNC2)cc(OC)c1OC (stereo not given) [TROXIPIDE] |  | Not Active | Not Active | Not Active | Not Active |  |  |  |  |  | 
CC(C)[C@H](N)C(=O)OCCOCn1cnc2c(=O)nc(N)[nH]c21 [VALACYCLOVIR] |  | Not Active | Not Active | Not Active | Not Active |  |  |  |  |  | 
COc1ccc(C(CN(C)C)C2(O)CCCCC2)cc1 (stereo not given) [VENLAFAXINE] |  | Not Active | Not Active | Not Active | Not Active |  |  |  |  |  | 
IVERMECTIN |  | Not Active | Not Active | Not Active | Not Active | Not Active |  |  |  |  | Not Active
